Reference: ChEMBL document CHEMBL1151378, “Anticancer indole alkaloids of Rhazya stricta” (1981)
Values after ≈ are worked out from the molar mass of the structure shown.

What was measured:
P388 = test: Cytotoxicity against mouse P388 cells; format: functional; conditions: read-out: ED50 (the source's name)
KB = test: Cytotoxicity against human KB cells; format: functional; conditions: read-out: ED50 (the source's name)

**Q.** What does the source list for `CCC1CCCN(CCc2c([C@H]3CCCc4c(CCN5CCCC(CC)C5)c5ccccc5n43)[nH]c3ccccc23)C1` (stereo partly drawn)?
**A.** EC50 (P388): 0.29 µg/mL (≈ 0.513 µM); EC50 (KB): 0.5 µg/mL (≈ 0.885 µM)

**Q.** Which results are given for `CCC1CCCN(CCc2c([C@@]3(COC(C)=O)CC[C@@H](COC(C)=O)c4c(CCN5CCCC(CC)C5)c5ccccc5n43)[nH]c3ccccc23)C1` (stereo partly drawn)?
**A.** EC50 (P388): 1.6 µg/mL (≈ 2.26 µM); EC50 (KB): 2.4 µg/mL (≈ 3.39 µM)

**Q.** Which EC50 (P388) does the source give for `C/C=C1/CN2[C@H]3Cc4c([nH]c5ccccc45)[C@@H]2C[C@@H]1[C@@]3(CO)C(=O)OC` [POLYNEURIDINE] here?
**A.** > 100 µg/mL

**Q.** And the EC50 (KB)?
**A.** > 100 µg/mL

**Q.** Which EC50 (P388) does the source give for `C/C=C1/CN2CC[C@]34C(=C(C(=O)OC)[C@H]1C[C@H]23)Nc1ccc(O)cc14` [SEWARINE] here?
**A.** 2.7 µg/mL (≈ 7.98 µM)

**Q.** What does the source list for `CCC1CCCN(CCc2c([C@@]3(CO)CC[C@@H](CO)c4c(CCN5CCCC(CC)C5)c5ccccc5n43)[nH]c3ccccc23)C1` (stereo partly drawn) [TETRAHYDROSECAMINEDIOL]?
**A.** EC50 (P388): 0.33 µg/mL (≈ 0.528 µM); EC50 (KB): 0.0038 µg/mL (≈ 0.00608 µM)

**Q.** Which results are given for `CCC1CCCN(CCc2c([C@@]3(C(=O)OC)CC[C@@H](C(=O)OC)c4c(CCN5CCCC(CC)C5)c5ccccc5n43)[nH]c3ccccc23)C1` (stereo partly drawn) [TETRAHYDROSECAMINE]?
**A.** EC50 (P388): 0.4 µg/mL (≈ 0.587 µM); EC50 (KB): 0.69 µg/mL (≈ 1.01 µM)

**Q.** What does the source list for `C/C=C(/C=O)[C@@H]1C[C@H]2c3[nH]c4ccccc4c3CCN2C=C1C(=O)OC` [VALLESIACHOTAMINE]?
**A.** EC50 (P388): 1.1 µg/mL (≈ 3.14 µM); EC50 (KB): 3.56 µg/mL (≈ 10.2 µM)
